# According to patent publication US9085593B2, “Therapeutic agent for arthrosis” (SANSHO CO., LTD., priority 2011, dated 2015):
# Several values for one entry are separate records, joined by “and”; a condition that tells them apart may be missing. Equal values may be shown once.
# Tested on: osteoarthritis in rabbit knee
# Test: Pain assessment (weight distribution across both hind limbs), rabbit knee osteoarthritis model
# Type: in vivo, rabbits (Kbs:NZW)
# Conditions: for Weight distribution, Mean / Left hind limb / Right hind limb / Weight distribution (%) on treated limb (right hind limb): 10 μg/rabbit into joint cavity; for Weight distribution, Mean: group mean n=6; for Left hind limb / Right hind limb / Weight distribution (%) on treated limb (right hind limb): individual animals 201-206, listed as Test substance, sodium salt
# Description: Twelve 11- to 12-week-old male rabbits (Kbs:NZW) were used. Rabbits were reared in separate cages (one rabbit per cage) at 14.4° C. to 24.9° C. under light (12 hours from 7:00 am to 7:00 pm) with continuous ventilation. Rabbits were allowed to eat 150 g of feed (CR-3, CLEA Japan, Inc.) per day and to drink tap water.
# (9Z)-9-Octadecenoic acid-(2-hydroxy-2-oxide-1,2-oxaphospholan-4-yl)methyl ester sodium salt (C18:1-cPA; hereafter, referred to as “ScPA”) was used.
# Hair in the vicinity of the knee joint of the right hind limb of a rabbit was shaved using electrical clippers under deep anesthesia, and the shaved area was disinfected with Isodine. The outer coat on the medial aspect of the right hind limb was incised with a surgical knife, the boundary between the medial aspect and the articular capsule of the patellofemoral ligament was further incised, and the medial patellofemoral ligament was then dissected. Thereafter, the articular capsule was spread wide open to expose the medial meniscus, which was then completely removed. Following the removal of the meniscus, tissue and epidermis in the vicinity of the articular capsule were sutured. At the time of suturing, the site of operation was washed with physiological saline (titer: 500 mg/20 ml) containing antibiotics (Viccillin, Meiji Seika Pharma Co., Ltd.).
# After the model animals were prepared, they were divided into two groups each consisting of 6 individuals while averaging body […] (i.e., the vehicle administered group of Animal Numbers 101 to 106 and the test substance (ScPA) administered group of Animal Numbers 201 to 206).
# The test compound and the vehicle were administered in the manner described below. • Route of administration: into the joint cavity • Site of administration: right hind limb (treated limb) • Timing of administration: on days 7, 11, 14, 18, 21, 25, 28, 32, 35, and 39 • Dosage: Test compound: 10 μg/rabbit (volume: 0.2 ml) • Vehicle: 0.2 ml/rabbit • Means of administration: with the use of a 1.0-ml syringe (Terumo Corporation) and a 27 G injection needle (Terumo Corporation) (1-5) Pain Assessment (Weight Distribution Across both Hind Limbs) Frequency of Measurement:
# Measurement was carried out seven times in total: i.e., before treatment and 1, 2, 3, 4, 5, and 6 weeks after the treatment.
# Body weights loaded on the right hind limb and the left hind limb were separately measured using a weight scale, and the weight distribution on the treated limb (the right hind limb) was determined using the following equation. Weight distribution (%) on treated limb (right hind limb)=[right hind limb (kg)/(right hind limb (kg)+left hind limb (kg))]×100 (1-6) Swelling Assessment (Articular Swelling of both Hind Limbs) Frequency of Measurement: […]
compound,measurement,setting,value
"CCCCCCCC/C=C\CCCCCCCC(=O)OCC1COP(=O)([O-])C1.[Na+] (centres unmarked) [ScPA, (9Z)-9-Octadecenoic acid-(2-hydroxy-2-oxide-1,2-oxaphospholan-4-yl)methyl ester sodium salt]","Weight distribution, Mean",Day 0 (before treatment),49.1%
same,Left hind limb,Day 0 (before treatment),610 g and 400 g and 550 g and 460 g and 260 g and 310 g
same,Right hind limb,Day 0 (before treatment),660 g and 320 g and 410 g and 490 g and 270 g and 350 g
same,Weight distribution (%) on treated limb (right hind limb),Day 0 (before treatment),52% (2×) and 44% and 43% and 51% and 53%
same,"Weight distribution, Mean",Day 7,32.1%
same,Left hind limb,Day 7,1010 g and 410 g and 900 g and 750 g (2×) and 880 g
same,Right hind limb,Day 7,660 g and 160 g and 140 g and 520 g and 430 g and 460 g
same,Weight distribution (%) on treated limb (right hind limb),Day 7,40% and 28% and 13% and 41% and 33% and 38%
same,"Weight distribution, Mean",Day 14,39.4%
same,Left hind limb,Day 14,770 g and 400 g and 640 g and 810 g and 700 g and 600 g
same,Right hind limb,Day 14,520 g and 200 g and 320 g and 630 g and 380 g and 610 g
same,Weight distribution (%) on treated limb (right hind limb),Day 14,40% and 33% (2×) and 44% and 35% and 50%
same,"Weight distribution, Mean",Day 21,43.0%
same,Left hind limb,Day 21,710 g and 440 g and 350 g and 580 g (2×) and 760 g
same,Right hind limb,Day 21,380 g and 370 g and 720 g and 250 g and 450 g and 440 g
same,Weight distribution (%) on treated limb (right hind limb),Day 21,35% and 46% and 67% and 30% and 37% and 43%
same,"Weight distribution, Mean",Day 28,47.0%
same,Left hind limb,Day 28,700 g and 290 g and 260 g and 750 g and 710 g and 800 g
same,Right hind limb,Day 28,600 g (2×) and 150 g and 390 g and 660 g and 780 g
same,Weight distribution (%) on treated limb (right hind limb),Day 28,46% (2×) and 34% and 60% and 47% and 49%
same,"Weight distribution, Mean",Day 35,39.1%
same,Left hind limb,Day 35,650 g and 800 g and 470 g and 1030 g and 570 g and 870 g
same,Right hind limb,Day 35,350 g (2×) and 380 g and 630 g and 560 g and 510 g
same,Weight distribution (%) on treated limb (right hind limb),Day 35,35% and 30% and 45% and 38% and 50% and 37%
same,"Weight distribution, Mean","Day 42, p=0.0053 vs vehicle",46.7%
same,Left hind limb,Day 42,620 g and 700 g and 380 g and 820 g and 840 g and 580 g
same,Right hind limb,Day 42,440 g and 510 g and 630 g and 660 g and 520 g and 610 g
same,Weight distribution (%) on treated limb (right hind limb),Day 42,42% (2×) and 62% and 45% and 38% and 51%
same,weight loaded on the treated limb (the right hind limb) compared with the vehicle administered group,after day 14 up to day 42,maintained at higher levels
